# Source: PubChem BioAssay (NCI)
# Where “and” joins values, the source holds several entries; their conditions need not be identical. Identical values can stand only once.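 Grown in 96-well plates, cells were treated for 48 hours with each compound at five concentrations. Insufficient inhibition: endpoint recorded as highest concentration tested. At the GI50, growth is halved. TGI: total growth inhibition.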
# What was measured:
# Assay in all cases: inhibition of tumour cell growth, NCI panel, 48 h
# HOP-92 NSCLC = system: HOP-92 NSCLC
# RXF 393 renal = system: RXF 393 renal
# A549 NSCLC = system: A549 NSCLC
# ACHN renal = system: ACHN renal
# RPMI-8226 leukemia = system: RPMI-8226 leukemia
# HS 578T breast = system: HS 578T breast
# CAKI-1 renal = system: CAKI-1 renal
# SNB-75 CNS = system: SNB-75 CNS
# UO-31 renal = system: UO-31 renal
# EKVX NSCLC = system: EKVX NSCLC
Structure (SMILES),GI50 (HOP-92 NSCLC),TGI (HOP-92 NSCLC),GI50 (RXF 393 renal),TGI (RXF 393 renal),GI50 (A549 NSCLC),TGI (A549 NSCLC),GI50 (ACHN renal),TGI (ACHN renal),GI50 (RPMI-8226 leukemia),TGI (RPMI-8226 leukemia),GI50 (HS 578T breast),TGI (HS 578T breast),GI50 (CAKI-1 renal),TGI (CAKI-1 renal),GI50 (SNB-75 CNS),TGI (SNB-75 CNS),GI50 (UO-31 renal),TGI (UO-31 renal),GI50 (EKVX NSCLC),TGI (EKVX NSCLC)
Nc1cc(N)c2nc(-c3ccccc3)c(Oc3ccc(F)cc3)nc2c1,12.2 µM,29.8 µM,21.1 µM,46.5 µM,24.2 µM,46.3 µM,21.8 µM,85.9 µM,12.2 µM,46.4 µM,19.8 µM,53.7 µM,19.4 µM,37 µM,23.5 µM,49.4 µM,29.6 µM,> 100 µM,14.6 µM,33.7 µM
N#CC(C#N)SCc1ccccc1,,> 87.4 µM,,79 µM,,> 100 µM,,> 100 µM,,> 38.6 µM,,98.3 µM,,> 100 µM,,> 96 µM,,> 100 µM,,> 100 µM
NS(=O)(=O)c1ccc(N2Cc3cc(Cl)ccc3OC3=C2C(=O)N(CC2CCCCC2)C3=O)cc1,1.31 µM,2.67 µM,0.495 µM,1.77 µM,2.13 µM,3.99 µM,0.286 µM,0.883 µM,0.227 µM,0.575 µM,2.01 µM,6.88 µM,1.24 µM,2.55 µM,0.784 µM,2.13 µM,1.1 µM,2.32 µM,1.47 µM,2.91 µM
CC(C)n1c(/C=C/[C@@H](O)C[C@@H](O)CC(=O)O)c(-c2ccc(F)cc2)c2ccccc21,0.0329 µM and 0.0368 µM,0.282 µM and 0.183 µM,3.54 µM and 2.12 µM,> 100 µM and 18.9 µM,5.93 µM and 6.99 µM,> 100 µM,0.725 µM and 0.558 µM,> 100 µM,5.55 µM and 10.3 µM,> 100 µM,4.29 µM and 4.73 µM,> 100 µM,0.594 µM and 0.542 µM,2.99 µM and 2.69 µM,1.43 µM and 0.859 µM,> 100 µM,4.91 µM and 3.26 µM,> 100 µM,16.8 µM,> 100 µM
Clc1ccccc1NN(Cc1ccccn1)c1ccccc1Cl,,30.5 µM,,29.2 µM,,37.2 µM,,> 100 µM,,61.4 µM,,63.9 µM,,91.9 µM,,41.7 µM,,34.8 µM,,52.5 µM
Clc1ccc(COC(Cn2ccnc2)c2ccc(Cl)cc2Cl)cc1 (centres undefined),0.511 µM,3.42 µM and 24.1 µM and 25.2 µM,2.01 µM,6.78 µM and 31.7 µM and 29.1 µM,2.78 µM,12.1 µM and 27 µM and 23.9 µM,3.59 µM,12.6 µM and 29.8 µM and 25.9 µM,1.9 µM,6.82 µM and 32.3 µM and 23.2 µM,3.72 µM,22.9 µM and 38.8 µM and 40.5 µM,2.05 µM,9.58 µM and 24.9 µM and 23.6 µM,4.97 µM,17.5 µM and 26.8 µM and 30.1 µM,1.44 µM,5.91 µM and 17.4 µM and 14.6 µM,2.91 µM,13.9 µM and 25.5 µM and 27.5 µM
CN1CCCN(CCNc2nccc(-c3c(-c4cccc(O)c4)nc4sccn34)n2)S1(=O)=O,12.1 µM and 16 µM,51.6 µM and 77.5 µM,5.26 µM and 2.72 µM,31 µM and 21.6 µM,7.46 µM and 7.71 µM,75 µM and > 100 µM,2.72 µM and 2.91 µM,75 µM and > 100 µM,16.7 µM and 15.2 µM,37.2 µM and 41.3 µM,7.08 µM and 3.04 µM,75 µM and 26 µM,2.25 µM and 2.15 µM,23.5 µM and 16.3 µM,1.47 µM and 2.19 µM,75 µM and > 100 µM,5.2 µM and 6.46 µM,39 µM and > 87.2 µM,31.1 µM and 30.3 µM,75 µM and > 100 µM
COC1/C=C/OC2(C)Oc3c(C)c(O)c4c(c3C2=O)C(=O)C=C(NC(=O)/C(C)=C\C=C\C(C)C(OC=O)C(C)C(O)C(C)C(OC(C)=O)C1C)C4=O (centres undefined),,28.8 µM,,19 µM,,39.7 µM,,21.5 µM,,24.2 µM,,44.9 µM,,28.3 µM,,41.1 µM,,29.6 µM,,25.8 µM
Cc1cc2c(cc1C)NC1=C(N2)OC(c2c[nH]c3ccc(COc4ccccc4)cc23)C1=O (centres undefined),,> 100 µM,,> 100 µM,,> 100 µM,,> 100 µM,,> 100 µM,,> 100 µM,,> 100 µM,,38.7 µM,,> 100 µM,,> 100 µM
COC(=O)c1ccc2c(c1)C(NC(C)=O)CCc1cc(OC)c(OC)c(OC)c1-2 (centres undefined),,13.1 µM,,6.65 µM,,> 100 µM,,> 100 µM,,> 100 µM,,7.78 µM,,77.4 µM,,15.1 µM,,> 81 µM,,> 100 µM
CCOC(=O)c1c(NC(=O)c2ccc(C(C)C)cc2)sc2c(CN(C)C)c(O)ccc12,1.44 µM,3.1 µM,1.74 µM,3.39 µM,4.29 µM,20.7 µM,3.03 µM,9.24 µM,1.84 µM,4.6 µM,2.01 µM,4.37 µM,1.73 µM,3.44 µM,1.47 µM,3.39 µM,1.46 µM,2.82 µM,2.78 µM,9.09 µM
N/C(=N\OC(=O)c1ccccc1)C(C(=O)NOC(=O)c1ccccc1)C1CCCCC1 (centres undefined),2.39 µM,7.72 µM,8.59 µM,65.1 µM,2.08 µM,5.05 µM,3.04 µM,10.9 µM,3.12 µM,12.2 µM,2.57 µM,7.93 µM,0.5 µM,1.73 µM,2.79 µM,11.9 µM,2.01 µM,3.96 µM,6.1 µM,20.9 µM
COc1cc(-c2oc3ccccc3c(=O)c2O)cc(OC)c1OC,,44 µM,,42.6 µM,,> 100 µM,,75.4 µM,,> 100 µM,,98.9 µM,,> 100 µM,,25.6 µM,,> 100 µM,,> 100 µM
O=C(O)c1cc[c]([Hg][S]c2ncnc3nc[nH]c23)cc1,2.21 µM,23 µM,2.95 µM,18.8 µM,16.4 µM,33.7 µM,11.6 µM,23.7 µM,4.91 µM,28.2 µM,1.5 µM,6.06 µM,4.96 µM,21.1 µM,1.45 µM,19.4 µM,4.79 µM,17 µM,19.2 µM,34.9 µM
CNC(=O)Nc1ccc(-c2nc(N3CCOCC3)nc3c2cnn3C2CCOCC2)cc1,0.0371 µM,0.526 µM,0.14 µM,0.812 µM,0.204 µM,2.71 µM,0.225 µM,1.74 µM,0.205 µM,,0.0503 µM,0.303 µM,0.227 µM,2.62 µM,0.045 µM,0.448 µM,0.0435 µM,0.544 µM,0.18 µM,2.42 µM
CSc1ccc(C2=Nn3c(nnc3-c3ccc(F)c(Cl)c3)SC2)cc1,4 µM,14.8 µM,4.46 µM,19.4 µM,12.5 µM,29.7 µM,13.7 µM,33.6 µM,18.6 µM,> 100 µM,10 µM,36.6 µM,22.5 µM,> 100 µM,4.67 µM,16 µM,16.5 µM,43.7 µM,42.1 µM,> 100 µM
CCN(CC)c1ccc(NC(=S)NN(C)C)cc1,,> 10 µM,,> 10 µM,,> 10 µM,,> 10 µM,,> 10 µM,,> 10 µM,,> 10 µM,,> 10 µM,,> 10 µM,,> 10 µM
